According to article PMC4859512, “Polyamino-Isoprenic Derivatives Block Intrinsic Resistance of P. aeruginosa to Doxycycline and Chloramphenicol In Vitro” (PLoS ONE, 2016):
Where “and” joins values, the source holds several entries; their conditions need not be identical. Identical values can stand only once.

Key:
[1] = test system: outer membrane of P. aeruginosa PA01; experiment: Outer membrane permeation assay (nitrocefin hydrolysis)
Procedure: An overnight culture of PA01 was diluted 100-fold into 10 ml MHII broth containing 0.01 μg/ml of imipenem to induce a higher level of β-lactamases. […] Absorbance at 490 nm was monitored by spectrophotometry using an Infinite M200 microplate reader (Tecan) over 60 min. Experiments were performed in triplicate.

[2] = test system: P. aeruginosa PA01; experiment: Comparison of efficiency between compounds and PAßN (compound gradient with 2 mg/L doxycycline); type: cell-based, Pseudomonas aeruginosa; settings: for concentration needed to inhibit growth in the presence of doxycycline: PA01, doxycycline 2 mg/L, 18 h
Procedure: Serial dilutions of each compound (from 270 μM to 0.95 μM for PAßN and from 135 μM to 0.06 μM for 3) were prepared in microplates. Doxycycline (2 mg/L) was then added to each well before inoculation of bacteria (5x10^5 cfu/mL). Optical density (600 nm) was measured after 18 hours at 37°C. Only the relevant part of the graphs are shown. Experiments were performed in triplicate.
First, we performed a checkerboard assay to analyze the synergy between doxycycline and the polyamino-isoprenic compound and between doxycycline and PAβN. For both, compound 3 and PAβN we observed a synergistic inhibition of growth when combined with doxycycline with a FIC Index of 0.09 (S2 Table). […] PAßN is generally used at a concentration greater than 10 μM to inhibit the resistance of P. aeruginosa with respect to various antibiotics, and, to our knowledge, no data have been reported in the literature on its use in combination with doxycycline. The percentage of growth inhibition was monitored as a function of compound concentration, and the results are presented in Fig 3.

[3] = test system: CHO-K1 cells; experiment: cells; type: cell-based, Chinese Hamster; settings: Cricetulus griseus, CHO-K1; WST1, 24 h; mean +/- SD, 2 independent experiments
Procedure: CHO-K1 cells (ATCC-LGC Standards Sarl (Molsheim, France) and human fibroblasts (Clinisciences, Paris, France) were maintained in McCoy’s 5A and DMEM media, respectively, supplemented with 10% bovine calf serum, 2 mM glutamine, and 100 U/mL/10 μg/mL penicillin/streptomycin. They were incubated at 37°C in a humidified atmosphere containing 5% CO2. The cell lines were seeded in 96-well plates and incubated overnight. The cytotoxic effects of compounds were assessed by the colorimetric WST-1 cell proliferation assay as previously described. Briefly, a range of compound concentrations from 30 μM to 1200 μM was added to triplicate cultures, and cells were incubated at 37°C for 24 h. At the end of the incubation period, cultures were washed three times with phosphate buffer saline (PBS) and incubated in fresh culture medium containing 10% WST-1 for an additional 30 min. Cell viability was evaluated by measuring the WST-1 absorbance at 450 nm in a microplate spectrophotometer MRX1 II (Dynex technologies, Chantilly, VA, USA). The Inhibitory Concentration 50% (IC50) was chosen to evaluate the cytotoxicity of compounds. IC50 was defined as the concentration of a compound that induced a 50% decrease in viable cells. Doxorubicin was used as a positive control.

[4] = test system: P. aeruginosa PA01 ERY^R (Mex CD overproducer); experiment: microbe, parasite or virus in culture; type: cell-based, Pseudomonas aeruginosa
[5] = test system: twenty clinical isolates of P. aeruginosa; experiment: Combined antibiotic / polyamino-isoprenic derivative on MH agar plates, clinical isolates; type: cell-based, Pseudomonas aeruginosa
Procedure: MH agar plates were prepared, containing 2 mg/L doxycycline and 2 mg/L doxycycline in combination with compounds at a concentration of 10 μM. Bacteria, 5 μL of a suspension of each clinical isolate adjusted to 5 x 10^5 colony-forming units per ml were spotted on each plate and growth was monitored after a 18 h period of incubation at 37°C.
PA01 is a well-studied reference strain of P. aeruginosa, however to extend our study we considered strains recently isolated from hospitalized patients. Thus, we decided to test this combination of doxycycline (2mg/L) with polyamino-isoprenic compounds (10 μM) on twenty clinical isolates recently isolated from the HIA-Laveran (see M&M section and S1 Table).

[6] = test system: cytoplasmic membrane of PA01; experiment: Inner membrane depolarization assay (Disc3(5) fluorescence); type: cell-based, Pseudomonas aeruginosa; settings: PA01, Disc3(5) fluorescence
Procedure: Inner membrane depolarization assay
Cells were grown to a mid-
logarithmic phase, recovered by centrifugation (3000 X g for 20 min) and washed in 5 mM 4-(2-
hydroxyethyl)piperazine-1-ethanesulfonic acid (HEPES, pH 7.0) containing 10 mM EDTA. After 5
min incubation at room temperature, cells were recovered by centrifugation (3000 X g for 20
min), and resuspended in 5 mM HEPES (pH 7.0) containing 50 mM glucose, OD600 nm was
adjusted to 0.29. Five µl of a 160 µM suspension of [3,3’-Dipropylthiadicarbocyanine iodide]
(Disc3(5)) were added after 90 sec to 100 µl of a bacterial suspension, in a 96-well Greiner black
microplate, to reach 8 µM final concentration. After a 16.5 min incubation period allowing
incorporation of the dye into the polarized membrane, 10 µl of the appropriate compound
concentration were added. Fluorescence was monitored every 30 sec on an Infinite M200
microplate reader (Tecan; excitation wavelength 622nm and emission wavelength 690nm).
Assays were performed in two independent experiments and statistically significance was
assessed using a student’s t-test. A p-value ≤ 0.05 was considered significant.
(1 picture or pasted object on this page, not shown here)

[7] = test system: P. aeruginosa PA01 reference strain; experiment: High-content screening in the presence of doxycycline; settings: compound 10 μM, doxycycline 4 mg/L
Procedure: The screening was carried out in 96-well microtiter plates using MHBII, in a final volume of 200 μL. […] The bacterial inoculum of 5×10^5 CFU/mL was prepared from an overnight culture. In addition to the polyamino-isoprenic compounds, each plate contained PAßN, CCCP, CTAB, polymyxin-B and benzalkonium chloride as control molecules. Plates were incubated at 37°C under aerobic conditions for 18 hours. Plates were read at 600 nm on an Infinite M200 Pro plate reader (Tecan).
A series of 60 compounds, which were described [18], were tested at a concentration of 10 μM in combination with a sub-inhibitory concentration of doxycycline against the reference strain of P. aeruginosa PA01. In parallel, we evaluated the intrinsic antimicrobial activity of these compounds alone to allow the selection of only doxycycline adjuvants.

[8] = chloramphenicol 4 mg/L + compound 10 μM

SMILES: CC(C)=CCCC(C)=CCCC(C)=CCNCCCNCCCCNCCCN [Compound 3]
- outer membrane permeation efficacy ([1]; compound at 15.6μM, p value ≤ 0.05): significantly identical to 31.25μM of PMBN
- outer membrane permeation activity ([1]; compound at 31.25μM, relative to 250 μM polymyxin-B): 10%
- concentration needed to inhibit growth in the presence of doxycycline [2]: ~1.22 mg/L
- concentration needed to inhibit growth in the presence of doxycycline ([2]; graphically determined on Fig 3): approximately 3 μM
- potency in comparison with PAßN ([2]; adjuvant of doxycycline): approximately 10 times
- IC50 [3]: 320 ± 41.2 µM
- MIC of Amikacin in the presence of the compound ([4]; PA01 ERY R, compound 10µM): 32 µg/mL
- MIC of Ceftazidime in the presence of the compound ([4]; PA01 ERY R, compound 10µM): 2 µg/mL
- MIC of Ciprofloxacin in the presence of the compound ([4]; PA01 ERY R, compound 10µM): 0.125 µg/mL
- MIC of Ticarcillin in the presence of the compound ([4]; PA01 ERY R, compound 10µM): 16 µg/mL
- MIC ([4]; Pseudomonas aeruginosa, read-out: Minimal Inhibitory Concentration): 25 µg/mL and 62.5 µM
- clinical isolates resistant [5, 8]: 25%
- clinical isolates resistant (number of 20) [5, 8]: 5
- clinical isolates whose growth was impaired [5, 8]: 75%
- clinical isolates whose growth was impaired (number of 20) ([5]; chloramphenicol 4 mg/L + compound 10 μM, data not shown): 15
- MIC ratio (doxycycline) ([5]; clinical isolates, with compound): 32
- isolates with doxycycline susceptibility restored ([5]; doxycycline 2 mg/L + compound 10 μM, 20 clinical isolates): total susceptibility of all the considered isolates
- cytoplasmic membrane depolarization [6]: dissipated the proton motive force
- bacterial growth in combination with doxycycline [7]: completely abolished bacterial growth
